Test results: patent US7083798B1, “Method of immunomodulatory treatment of insulin dependent diabetes mellitus using mycobacterial cell wall compositions” (Centenary Institute of Cancer Medicine and Cell Biology, priority 1996, dated 2006)

Tested on: mice
Assay: Maximum dose tolerated by mice
Procedure: GMDP (10, 5.0, 2.5 and 1.0 μg), ManLAM (50, 25, 12.5 and 6.25 μg), and MAPG (1.0, 0.5, 0.25 and 0.125 mg) were each suspended in saline and injected intravenously into eight week old female NOD mice. […] Groups of 5 mice were tested and the incidence of diabetes compared to 17 saline treated and 14 BCG treated control mice.

CC(=O)N[C@H]1[C@H](O[C@H]2[C@H](O[C@H](C)C(=O)N[C@@H](C)C(=O)N[C@H](CCC(=O)O)C(N)=O)[C@@H](NC(C)=O)C(O)O[C@@H]2CO)O[C@H](CO)[C@@H](O)[C@@H]1O (stereo partly drawn) [GMDP, N-acetylglucosaminyl-N-acetylmuramyl-L-alanyl-D-isoglutamine]
maximum dose tolerated by mice: 10 µL·g
